Test results reported in patent US20180028493A1, “INHIBITORS OF INDUCED MMP-1 PRODUCTION” (THE TRUSTEES OF COLUMBIA UNIVERSITY IN THE CITY OF NEW YORK, priority 2015, published 2018).
“And” between values parts separate entries of the source, which are not always exact repeats. Identical values can stand only once.

Columns and labels:
MMP-1 [1] = assay: MMP-1 expression in SAECs treated with CSE; assay type: cell-based
Protocol: FIG. 5. […] Data is presented as mean+standard error.
FIG. 8. […] SAEC treatment with 5% CSE, 10 nM Fluoxitine, 10 uM Fluoxitine, and combinations of 5% CSE and Fluoxitine. […] Data is presented as mean+standard error.
In the first experiment, SAE cells were treated with 5% CSE, 10 nM Fluoxitine, 10 uM Fluoxitine, and combinations of 5% CSE and Fluoxitine (FIG. 8). […] Data is presented as mean+standard error.

MMP-1 [2] = tested on: MMP-1
Excerpt: FIG. 6. The expression of MMP-1 protein in BAL from smoke rabbits. […] SM-smoke without the duloxetine, SMD-smoke with duloxetine.
(§1) Rabbits were stratified into one of four groups (Unexposed, treated with vehicle, Smoke exposed, treated with vehicle, Unexposed, treated with Duloxetine and smoke exposed treated with Duloxetine. Animals are maintained on room air or smoke exposed for 16 weeks and then sacrificed. Lung lavage is taken, lungs are fixed and sectioned and protein homogenate from lungs frozen.

emphysema = tested on: emphysema
Protocol: FIG. 7A. […] Duloxetine was administered 3 mg/day given once a day.
FIG. 7B. Morphometric analysis of rabbit study groups. […] NS-non-smoke without the duloxetine, NS-D-non-smoke with duloxetine, SM-smoke without the duloxetine, SM-D-smoke with duloxetine.
as §1

TLR-4 receptor = assay: TLR4 expression in CSE treated SAE cells; assay type: cell-based; conditions: SAEC, 5% CSE, 10 uM
IRAK = assay: Western blot of IRAK phosphorylation in CSE treated SAE cells; assay type: cell-based
PRAS40, BAD and GSK-3b = assay: Protein array analysis of cells treated with CSE; assay type: cell-based; conditions: CSE with Fluoxetine pretreatment vs CSE
Protocol: FIG. 10. Protein Array Analysis of Cells Treated with CSE compared to Cells Treated with CSE combined with Fluoxetine. […] The lines representing these three transcription factors, along with ERK 1/2, are labeled. Additionally, the lines compressed at the bottom of the figure represent the following transcription factors that were also tested: PC, NC, Stat1, Stat2, Akt (Thr308), Akt (Ser473), AMPKa, S6 Ribosomal Protein, mTOR, HSP27, p70 S6 Kinase, p53, p38, SAPK/JNK, PARP and Caspase-3.

[3] = Fluoxetine quantification in lung by chromatography after oral gavage or inhalation; assay type: in vivo; conditions: mice; for Concentration in lung sample: peak at retention time 17.08, replicates and average
Excerpt: FIG. 13A. […] Mice were sacrificed, lungs lyophilized and protein homogenate prepared for chromatographic analysis.
FIG. 14A. […] Mice were sacrificed, lungs lyophilized and protein homogenate prepared for chromatographic analysis.
Mice were sacrificed, lungs lyophilized and protein homogenate prepared for chromatographic analysis.

| Concentration in lung sample ([3]; inhalation 10 mg/kg) | Concentration in lung sample ([3]; inhalation 10 mg/kg, mean) | Levels of Fluoxetine within the lung, inhalation vs oral ([3]; 10 mg/kg) | Concentration in lung sample ([3]; oral gavage 10 mg/kg, 10 mg/kg, mean) | Compound | MMP-1 expression (MMP-1 [1]; SAEC, 5% CSE, 10 uM Duloxetine, p<0.05) | MMP-1 expression (MMP-1 [1]; cell culture system, 10 nM) | MMP-1 expression by ELISA of lung homogenate (MMP-1 [2]; rabbit cigarette smoke model, 20 weeks of smoke, compound in the last four weeks) | Expression of MMP-1 protein in BAL (MMP-1 [2]; smoke exposed rabbits) | Mean linear intercept (morphometric analysis) (emphysema; SM vs NS, NS-D, SM-D groups, p=0.0495) | Development of emphysema (H&E of lungs) (emphysema; smoke exposed rabbits, 3 mg/day once a day) | MMP-1 induction by CSE (MMP-1 [1]; SAEC, 5% CSE, 10 nM and 10 uM Fluoxetine, p<0.05) | TLR-4 receptor expression (TLR-4 receptor) | Phosphorylation of IRAK (Western blot) (IRAK) | BAD (protein array) (PRAS40, BAD and GSK-3b) | GSK-3b (protein array) (PRAS40, BAD and GSK-3b) | PRAS40 (protein array) (PRAS40, BAD and GSK-3b) | Detection of Fluoxetine in the lung ([3]; 10 mg/kg oral gavage and 10 mg/kg inhaled) | Concentration in lung sample ([3]; oral gavage 10 mg/kg, 10 mg/kg) |
| --- | --- | --- | --- | --- | --- | --- | --- | --- | --- | --- | --- | --- | --- | --- | --- | --- | --- | --- |
| – | – | – | – | CNCC[C@H](Oc1cccc2ccccc12)c1cccs1 [Duloxetine, (+)-(S)—N-Methyl-3-(naphthalen-1-yloxy)-3-(thiophen-2-yl) propan-1-amine] | decreased MMP-1 expression | block the MMP-1 expression | block the MMP-1 expression | down regulated the expression of MMP-1 in BAL | SM group had statistically significant increased mean linear intercept | development of emphysema was blocked | – | – | – | – | – | – | – | – |
| 25.81 µM and 26.2 µM and 26.45 µM | 26.16 µM | Inhalation resulted in higher levels | 3.788 µM | CNCCC(Oc1ccc(C(F)(F)F)cc1)c1ccccc1 (stereo not drawn) [Fluoxetine] | – | – | – | – | – | – | MMP-1 induction was attenuated | down regulation of TLR-4 receptor expression | suppressed | return to baseline | return to baseline | return to baseline | detection of Fluoxetine in the lung of mice | 3.712 µM and 3.673 µM and 3.98 µM |
